Data from US20190290710A1, “USE OF GLUC[…] TO ENHANCE RECOMBINANT ADENO-[…] YIELD” (priority 2016, published 2019).
Read-outs that look alike come from different tables or passages of the source.

Key:
HeLa host cell line [1] = type: cell-based
Experimental: A number of cell culture additives including metals, trace supplements, salts, and others, were tested for their ability to increase production of recombinant adeno-associated virus vector (rAAV) by a HeLa host cell line.

HeLa host cell line [2] = experiment: rAAV yield by qPCR, HeLa host cell line in shaker flasks, glucocorticoid analogs; type: cell-based; conditions: shaker flask, 0.1 and 1 μM, 4 days, FIG. 2
Experimental: FIG. 2 is a bar graph depicting the effect of glucocorticoid analogs on rAAV production from a HeLa producer cell line cultured in a shaker flask. Hydrocortisone (hydr), predinosolone (pred) and dexamethasone (dex) were added at the indicated concentrations and after 4 days rAAV yield (GC/ml) was measured by qPCR. Each value represents the mean of two independent experiments.
DNase-resistant particles (DRP) can be quantified by real-time quantitative polymerase chain reaction (qPCR) (DRP-qPCR) in a thermocycler (for example, an iCycler iQ 96-well block format thermocycler (Bio-Rad, Hercules, Calif.)). Samples containing rAAV particles are incubated in the presence of DNase I (100 U/ml; Promega, Madison, Wis.) at 37° C. for 60 min, followed by proteinase K (Invitrogen, Carlsbad, Calif.) digestion (10 U/ml) at 50° C. for 60 min, and then denatured at 95° C. for 30 min. The primer-probe set used should be specific to a non-native portion of the rAAV vector genome, for example, the poly(A) sequence of the protein of interest. […]
Stock solutions of dexamethasone (dex), prednisolone (pred), and hydrocortisone (hydr) dissolved in DMSO were added to the cell culture to final concentrations of 0.1 and 1 μM. After 4 days, rAAV yield was determined by measuring both the secreted (extracellular) and total rAAV in the cell culture harvest by qPCR.

SMILES: NCCCCN [putrescine]
- effect on rAAV yield (HeLa host cell line [1]): negative effect

SMILES: [Cu] [copper]
- impact on rAAV yield (HeLa host cell line [1]; copper concentration increased from 0.1 μM to 10 μM): No or minimal impact

SMILES: NCCCNCCCCNCCCN [spermine]
- effect on rAAV yield (HeLa host cell line [1]): negative effect

SMILES: [Fe] [iron]
- impact on rAAV yield (HeLa host cell line [1]; iron concentration increased from 0.1 mg/L to 10 mg/L): No or minimal impact

SMILES: C[C@]12CCC(=O)C=C1CC[C@@H]1[C@@H]2[C@@H](O)C[C@@]2(C)[C@H]1CC[C@]2(O)C(=O)CO [hydrocortisone]
- rAAV yield (extracellular and total) (HeLa host cell line [2]): increased rAAV yield

SMILES: [Ca+2] [calcium]
- media precipitation (HeLa host cell line [1]; calcium concentrations higher than 0.19 g/L): causing media precipitation
- impact on rAAV yield (HeLa host cell line [1]; supplementation with 0.19 g/L of calcium): minimal impact

SMILES: [Mg+2] [magnesium]
- impact on rAAV yield (HeLa host cell line [1]; magnesium concentration increased from 1 mg/L to 30 mg/L): slightly negative impact

SMILES: C[C@]12C=CC(=O)C=C1CC[C@@H]1[C@@H]2[C@@H](O)C[C@@]2(C)[C@H]1CC[C@]2(O)C(=O)CO [prednisolone]
- rAAV yield (extracellular and total) (HeLa host cell line [2]): increased rAAV yield
